Results as given in PubChem BioAssay (NCI).
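In this assay, cells in 96-well plates receive the compound at five concentrations for 48 hours. Endpoints are linearly interpolated between the surrounding concentrations. GI50 marks 50% less growth. TGI is the concentration that stops growth completely.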

Columns and labels:
Experiment in all cases: inhibition of tumour cell growth, NCI panel, 48 h
SNB-75 CNS = tested on: SNB-75 CNS
A549 NSCLC = tested on: A549 NSCLC
786-0 renal = tested on: 786-0 renal
DU-145 prostate = tested on: DU-145 prostate
UO-31 renal = tested on: UO-31 renal
PC-3 prostate = tested on: PC-3 prostate
UACC-257 melanoma = tested on: UACC-257 melanoma
MALME-3M melanoma = tested on: MALME-3M melanoma
SK-OV-3 ovarian = tested on: SK-OV-3 ovarian
SK-MEL-28 melanoma = tested on: SK-MEL-28 melanoma

`CN(CCO)c1ccc(N2Cc3ccccc3OC3=C2C(=O)c2c(O)ccc(O)c2C3=O)cn1` was tested, and the GI50 (SNB-75 CNS) was 0.348 µM, the TGI (SNB-75 CNS) was 1.8 µM and the GI50 (A549 NSCLC) was 2.08 µM. It also gave a TGI (A549 NSCLC) of 4.9 µM, a GI50 (786-0 renal) of 0.245 µM and a TGI (786-0 renal) of 0.74 µM. It also gave a GI50 (DU-145 prostate) of 0.174 µM, a TGI (DU-145 prostate) of 0.323 µM and a GI50 (UO-31 renal) of 0.0971 µM. It also gave a TGI (UO-31 renal) of 0.304 µM, a GI50 (PC-3 prostate) of 0.296 µM and a TGI (PC-3 prostate) of 0.888 µM. For the same molecule, the GI50 (UACC-257 melanoma) was 0.277 µM, the TGI (UACC-257 melanoma) was 0.791 µM and the GI50 (MALME-3M melanoma) was 0.0833 µM. The TGI (MALME-3M melanoma) was 0.245 µM, the GI50 (SK-OV-3 ovarian) was 2.24 µM and the TGI (SK-OV-3 ovarian) was 8.65 µM. For the same molecule, the GI50 (SK-MEL-28 melanoma) was 0.246 µM and the TGI (SK-MEL-28 melanoma) was 0.611 µM.
Work on `N#CC1=C(N)Oc2cc(O)ccc2C1c1cccc2ccccc12` (stereo not given) yielded a GI50 (SNB-75 CNS) of 14.1 µM, a TGI (SNB-75 CNS) of 32.9 µM and a GI50 (A549 NSCLC) of 7.02 µM. The TGI (A549 NSCLC) was > 100 µM, the GI50 (786-0 renal) was 13.4 µM and the TGI (786-0 renal) was 29.8 µM. It also gave a GI50 (DU-145 prostate) of 12.1 µM, a TGI (DU-145 prostate) of 29.7 µM and a GI50 (UO-31 renal) of 12.3 µM. It also gave a TGI (UO-31 renal) of 25.8 µM, a GI50 (PC-3 prostate) of 5.21 µM and a TGI (PC-3 prostate) of 29.2 µM. For the same molecule, the GI50 (UACC-257 melanoma) was 14.1 µM, the TGI (UACC-257 melanoma) was 30.1 µM and the GI50 (MALME-3M melanoma) was 25.8 µM. For the same molecule, the TGI (MALME-3M melanoma) was > 100 µM, the GI50 (SK-OV-3 ovarian) was 18.1 µM and the TGI (SK-OV-3 ovarian) was 42.9 µM. It also gave a GI50 (SK-MEL-28 melanoma) of 12.7 µM and a TGI (SK-MEL-28 melanoma) of 27.9 µM.
Work on `CCN(Cc1ccccc1C)c1ccc(CO)c(Cl)c1` yielded a GI50 (SNB-75 CNS) of 9.62 µM, a TGI (SNB-75 CNS) of 25 µM and a GI50 (A549 NSCLC) of 6.63 µM. For the same molecule, the TGI (A549 NSCLC) was 27.9 µM, the GI50 (786-0 renal) was 15 µM and the TGI (786-0 renal) was 30.9 µM. For the same molecule, the GI50 (DU-145 prostate) was 16.5 µM, the TGI (DU-145 prostate) was 35.4 µM and the GI50 (UO-31 renal) was 12.9 µM. The TGI (UO-31 renal) was 32.9 µM, the GI50 (PC-3 prostate) was 12.1 µM and the TGI (PC-3 prostate) was 25.4 µM. For the same molecule, the GI50 (UACC-257 melanoma) was 0.278 µM, the TGI (UACC-257 melanoma) was 1.67 µM and the GI50 (MALME-3M melanoma) was 15.6 µM. For the same molecule, the TGI (MALME-3M melanoma) was 32 µM, the GI50 (SK-OV-3 ovarian) was 13.7 µM and the TGI (SK-OV-3 ovarian) was 31.5 µM. It also gave a GI50 (SK-MEL-28 melanoma) of 13.2 µM and a TGI (SK-MEL-28 melanoma) of 27.8 µM.
For `NCCSc1nc(-c2ccccc2)c(-c2ccccc2)o1`, the TGI (SNB-75 CNS) was 61.4 µM, the TGI (A549 NSCLC) was > 100 µM and the TGI (786-0 renal) was > 100 µM. For the same molecule, the TGI (DU-145 prostate) was > 100 µM, the TGI (UO-31 renal) was > 100 µM and the TGI (PC-3 prostate) was > 100 µM. The TGI (UACC-257 melanoma) was > 100 µM, the TGI (MALME-3M melanoma) was > 100 µM and the TGI (SK-OV-3 ovarian) was > 100 µM. The TGI (SK-MEL-28 melanoma) was > 100 µM.
Work on `O[C@H](c1cc(C(F)(F)F)nc2c(C(F)(F)F)cccc12)[C@@H]1CCCCN1` yielded a GI50 (SNB-75 CNS) of 2.21 µM, a TGI (SNB-75 CNS) of 11.5 µM and a GI50 (A549 NSCLC) of 5.25 µM. It also gave a TGI (A549 NSCLC) of 16.3 µM, a GI50 (786-0 renal) of 4.68 µM and a TGI (786-0 renal) of 12.5 µM. For the same molecule, the GI50 (DU-145 prostate) was 3.41 µM, the TGI (DU-145 prostate) was 10.6 µM and the GI50 (UO-31 renal) was 1.88 µM. The TGI (UO-31 renal) was 9.48 µM, the GI50 (PC-3 prostate) was 2.08 µM and the TGI (PC-3 prostate) was 5.79 µM. The GI50 (UACC-257 melanoma) was 3.84 µM, the TGI (UACC-257 melanoma) was 9.11 µM and the GI50 (MALME-3M melanoma) was 0.875 µM. For the same molecule, the TGI (MALME-3M melanoma) was 5.73 µM, the GI50 (SK-OV-3 ovarian) was 6.11 µM and the TGI (SK-OV-3 ovarian) was 17.8 µM. It also gave a GI50 (SK-MEL-28 melanoma) of 2.29 µM and a TGI (SK-MEL-28 melanoma) of 5.63 µM.
`O=CN1CCN(CC(O)CN2CCCCC2)CC1` (stereo not given) was tested, and the TGI (SNB-75 CNS) was > 100 µM, the TGI (A549 NSCLC) was > 100 µM and the TGI (786-0 renal) was > 100 µM. The TGI (DU-145 prostate) was > 100 µM, the TGI (UO-31 renal) was > 100 µM and the TGI (PC-3 prostate) was > 100 µM. For the same molecule, the TGI (UACC-257 melanoma) was > 100 µM, the TGI (MALME-3M melanoma) was > 100 µM and the TGI (SK-OV-3 ovarian) was > 100 µM. For the same molecule, the TGI (SK-MEL-28 melanoma) was > 100 µM.
